The source of these data is patent EP1140809B1, “NEW BIPHENYL AND BIPHENYL-ANALOGOUS COMPOUNDS AS INTEGRIN ANTAGONISTS” (Bayer HealthCare AG, priority 1998, dated 2000).

Test [1] addresses T1, αvβ3 receptor (Homo sapiens, UniProt P05106+P06756).
T1 construct: αvβ3 from human A375 cells were purified according to a procedure described by Wong et al; endogenous in cells; host or cells: human A375 cells; receptor purified from the cells, detergent-solubilised
Kind of test: Binding to the αvβ3 receptor (echistatin displacement, WGA SPA beads). The conditions noted are these: αvβ3 purified from human A375 cells, labelled echistatin, read-out: avb3 IC50. The method, then: a) Binding to the αvβ3 receptor
10 µl αvβ3 (5 ng) in TBS pH 7.6, 2 mM CaCl2, 1mM MgCl2, 1% n/octylglucopyranoside; 10 µl of the substance to be tested in TBS pH 7.6, 0.1 % dimethylsulfoxide (DMSO), and 45 µl TBS pH 7.6, 2 mM CaCl2, 1 mM MgCl2, 1 mM MnCl2 were each incubated for 1 h at room temperature.

Test [2] relates to Smooth muscle cells. The experiment in a line: Smooth muscle cell (SMC) migration test (horizontal, vitronectin-coated plates). It counts as cell-based, humans or rats. The conditions noted are these: migration on vitronectin, 24 hours at 37°C; human or rat cells not specified. As to the method: b) Smooth muscle cell (SMC) migration test
Smooth muscle cells from humans or rats were used. The migration of the cells was determined in a horizontal measuring arrangement (Falcon).
The horizontal migration was determined in 6-well plates coated with vitronectin (1 µg/cm^2). The cells were suspended in a medium ([…]-rat smooth muscle cells or MCDB 131 with 0.2% BSA-human smooth muscle cells), inoculated and allowed to grow to confluence. Half of the smooth muscle cell lawn was then scraped off, and the cells were treated with different concentrations of the test compounds. The mixtures were incubated for 24 hours at 37°C in the presence of 5% CO2. After the incubation, the smooth muscle cell migration was determined by measurement of the migration distance and the cell density of the migrated cells.

Test [3] concerns the target αvβ5 receptor (Homo sapiens, UniProt P06756+P18084). The conditions noted are these: disclosed in WO 98/00395; cited from earlier work.

T1 sequence (P06756 31-889 limits assumed): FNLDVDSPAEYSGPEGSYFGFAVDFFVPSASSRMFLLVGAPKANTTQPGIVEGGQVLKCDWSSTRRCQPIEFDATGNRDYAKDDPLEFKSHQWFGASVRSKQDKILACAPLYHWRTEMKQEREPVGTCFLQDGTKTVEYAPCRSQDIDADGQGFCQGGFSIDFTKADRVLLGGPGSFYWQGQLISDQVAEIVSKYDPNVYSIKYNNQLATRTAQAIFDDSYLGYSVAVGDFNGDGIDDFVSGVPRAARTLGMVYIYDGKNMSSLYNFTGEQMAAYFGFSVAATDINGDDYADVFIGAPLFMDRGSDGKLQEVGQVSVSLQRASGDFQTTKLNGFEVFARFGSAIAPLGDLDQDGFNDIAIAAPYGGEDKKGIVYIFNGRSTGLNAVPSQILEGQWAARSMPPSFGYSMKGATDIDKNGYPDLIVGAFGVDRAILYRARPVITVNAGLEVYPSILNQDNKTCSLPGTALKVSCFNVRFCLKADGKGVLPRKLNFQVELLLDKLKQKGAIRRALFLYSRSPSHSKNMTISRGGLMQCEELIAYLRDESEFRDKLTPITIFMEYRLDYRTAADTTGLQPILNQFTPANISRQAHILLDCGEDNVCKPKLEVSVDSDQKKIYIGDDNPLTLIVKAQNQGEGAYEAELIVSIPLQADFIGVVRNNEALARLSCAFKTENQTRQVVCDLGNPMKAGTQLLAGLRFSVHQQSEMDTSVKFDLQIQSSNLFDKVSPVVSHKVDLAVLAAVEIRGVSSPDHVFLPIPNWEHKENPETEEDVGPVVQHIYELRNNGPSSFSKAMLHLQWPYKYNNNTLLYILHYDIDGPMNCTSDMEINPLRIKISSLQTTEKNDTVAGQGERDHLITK
T1 sequence (P06756 891-1048 partner limits assumed): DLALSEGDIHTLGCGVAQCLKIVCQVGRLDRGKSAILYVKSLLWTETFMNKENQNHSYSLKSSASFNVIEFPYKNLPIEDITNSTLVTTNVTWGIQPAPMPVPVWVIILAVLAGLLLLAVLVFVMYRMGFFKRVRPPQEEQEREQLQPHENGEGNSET
T1 sequence (P05106 27-788): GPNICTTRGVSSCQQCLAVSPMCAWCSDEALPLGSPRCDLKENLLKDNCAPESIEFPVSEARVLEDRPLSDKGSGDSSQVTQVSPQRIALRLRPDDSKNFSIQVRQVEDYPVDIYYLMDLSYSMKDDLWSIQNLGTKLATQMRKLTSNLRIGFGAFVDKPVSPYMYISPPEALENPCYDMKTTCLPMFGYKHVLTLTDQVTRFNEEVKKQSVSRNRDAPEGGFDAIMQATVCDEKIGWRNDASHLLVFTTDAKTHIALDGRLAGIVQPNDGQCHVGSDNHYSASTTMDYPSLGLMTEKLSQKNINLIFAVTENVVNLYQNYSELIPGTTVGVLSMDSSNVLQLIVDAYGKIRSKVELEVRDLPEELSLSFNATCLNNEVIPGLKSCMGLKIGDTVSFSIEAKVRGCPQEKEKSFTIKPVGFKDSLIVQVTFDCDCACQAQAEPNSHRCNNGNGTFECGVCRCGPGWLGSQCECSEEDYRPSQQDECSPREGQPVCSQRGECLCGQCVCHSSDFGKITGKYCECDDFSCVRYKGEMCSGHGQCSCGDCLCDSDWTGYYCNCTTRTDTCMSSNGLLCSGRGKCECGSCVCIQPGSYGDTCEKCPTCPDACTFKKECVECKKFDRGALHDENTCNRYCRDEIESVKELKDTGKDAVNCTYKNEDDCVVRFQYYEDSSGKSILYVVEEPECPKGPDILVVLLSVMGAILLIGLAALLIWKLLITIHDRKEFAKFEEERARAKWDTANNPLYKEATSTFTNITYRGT
αvβ5 receptor, sequence (P06756 31-889 limits assumed): as the sequence (P06756 31-889 limits assumed) above
αvβ5 receptor, sequence (P06756 891-1048 partner limits assumed): as the sequence (P06756 891-1048 partner limits assumed) above
αvβ5 receptor, sequence (P18084 24-799): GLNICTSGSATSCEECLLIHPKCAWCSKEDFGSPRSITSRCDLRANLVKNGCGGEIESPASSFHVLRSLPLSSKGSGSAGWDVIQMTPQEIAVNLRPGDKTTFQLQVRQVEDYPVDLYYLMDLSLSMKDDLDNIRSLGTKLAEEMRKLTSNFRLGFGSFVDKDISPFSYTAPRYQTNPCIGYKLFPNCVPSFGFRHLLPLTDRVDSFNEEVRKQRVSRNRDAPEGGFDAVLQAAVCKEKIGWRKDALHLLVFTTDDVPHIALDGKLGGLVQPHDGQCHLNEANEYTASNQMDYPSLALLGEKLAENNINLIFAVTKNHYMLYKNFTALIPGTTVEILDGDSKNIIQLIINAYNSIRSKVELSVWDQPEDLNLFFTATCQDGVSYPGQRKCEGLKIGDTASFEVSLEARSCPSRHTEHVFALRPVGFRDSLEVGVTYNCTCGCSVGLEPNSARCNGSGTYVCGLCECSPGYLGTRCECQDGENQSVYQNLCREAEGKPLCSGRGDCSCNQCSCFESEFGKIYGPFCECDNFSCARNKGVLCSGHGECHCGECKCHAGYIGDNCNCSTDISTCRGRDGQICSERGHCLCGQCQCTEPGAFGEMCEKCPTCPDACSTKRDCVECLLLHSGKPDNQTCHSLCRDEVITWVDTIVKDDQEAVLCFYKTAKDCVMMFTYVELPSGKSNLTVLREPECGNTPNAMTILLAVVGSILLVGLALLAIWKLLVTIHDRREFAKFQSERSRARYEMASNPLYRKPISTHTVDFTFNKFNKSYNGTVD

As for `Cc1cc(C)c(S(=O)(=O)NC(Cc2ccc(-c3cccc(NC(=O)NCc4cccnc4)c3)cc2)C(=O)O)c(C)c1` (racemic) [Example 1.5, (2R,S)-3-[3'-(3-(Pyridin-3-yl-methylureido)-biphenyl-4-yl]-2-[2,4,6-trimethylbenzenesulfonylamino]-propanoic acid], the IC50 in test [1] is 5 nM; in test [2], 480 nM.
`Cc1cc(C)c(S(=O)(=O)NC(Cc2ccc(-c3cccc(NC4=NCCN4)c3)cc2)C(=O)O)c(C)c1` (racemic) [Example 7.1, (2R,S)-3-[3'-(4,5-Dihydro-1H-Imidazol-2-ylamino)-biphenyl-4-yl]-2-(2,4,6-trimethyl-benzenesulfonylamino)-propanoic acid]: in test [1], the IC50 was found to be 1.2 nM.
Consider `O=C(O)CC(NS(=O)(=O)c1cccc(-c2cccc(CNCc3nc4ccccc4[nH]3)c2)c1)c1ccccc1` (racemic) [Example 8.1, (3R,S)-3-(3'-{[(1H-Benzoimidazol-2-ylmethyl)-amino]-methyl}-biphenyl-3-sulfonylamino)-3-phenyl-propanoic acid], for which half-maximal inhibition in test [2] (IC50) was put at 300 nM.
Consider `CC1(C)C2CCC1(CS(=O)(=O)NC(Cc1ccc(OCCCC(=O)NC(=N)N)cc1)C(=O)O)C(=O)C2` (centres unmarked) [(I)], for which, in test [3], the IC50 is 0.16 nM.
With `Cc1cc(C)c(S(=O)(=O)N[C@@H](Cc2ccc(-c3cccc(NC(=O)NC4CC4)c3)cc2)C(=O)O)c(C)c1` [Example 1.13, (2S)-3-[3'-(3-Cyclopropyl-ureido)-biphenyl-4-yl]-2-(2,4,6-trimethyl-benzenesulfonylamino)-propanoic acid], the IC50 is 1.2 nM in test [1] and 390 nM in test [2].
In turn, `CC1(C)C2CCC1(CS(=O)(=O)NC(Cc1ccc(-c3cccc(NC(=O)Nc4cccnc4)c3)cc1)C(=O)O)C(=O)C2` [Example 1.73, (2S)-3-[3'-(3-Pyridin-3-yl-ureido)-biphenyl-4-yl]-2-[(S)-campher-10-yl-sulfonylamino]-propanoic acid] displayed an IC50 in test [2] of 3 to 40 nM.
As for `O=C(O)CNS(=O)(=O)c1cccc(-c2cccc(NC(=O)NCc3ccccn3)c2)c1` [Example 4.1, [3'-(3-Pyridin-2-ylmethyl-ureido)-biphenyl-3-sulfonylamino]-acetic acid], the concentration for half-maximal inhibition (IC50) came to 33 nM in test [1] and 300 nM in test [2].
`Cc1cc(C)c(S(=O)(=O)N[C@@H](Cc2ccc(-c3cccc(CNc4ccccn4)c3)cc2)C(=O)O)c(C)c1` [Example 18.1.3, (2S)-2-Mesitylsulfonylamino-3-{3'-[(2-pyridinylamino)-methyl][1,1'-biphenyl]-4-yl}-propanoic acid]: the values for the IC50 in test [1] and in test [2] were 9 nM and 35 to 80 nM, respectively.
For the molecule `Cc1cc(C)c(S(=O)(=O)N[C@@H](Cc2ccc(-c3cccc(NC(=O)c4ncc[nH]4)c3)cc2)C(=O)O)c(C)c1` [Example 19.1.2, (2S)-3-{3'-[(1H-imidazol-2-ylcarbonyl)amino][1,1'-biphenyl]-4-yl}-2-[(mesitylsulfonyl)amino]-propanoic acid], the concentration for half-maximal inhibition (IC50) in test [1] turned out to be 1 nM; in test [2] it was 80 nM.

The term IC50 denotes the concentration that gives 50% inhibition.
